Inconclusive results and toxic doses are left out.
System: L1210 leukemia ip in BDF1 mice, survival T/C
Experiment: NCI In Vivo Anticancer Drug Screen. Data for tumor model L1210 Leukemia (intraperitoneal) in B6D2F1 (BDF1) mice
Settings: endpoint: mean survival time, higher = longer survival
Outline: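 Each compound was tested against a transplantable tumor grown in mice. The endpoint was survival, with treated animals benchmarked against vehicle controls as a simple ratio.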

[1] = dose: 100.0 mg/kg/injection, schedule: Q01DX001 (ip), vehicle: saline
[2] = dose: 200.0 mg/kg/injection, schedule: Q01DX001 (ip), vehicle: saline
[3] = dose: 400.0 mg/kg/injection, schedule: Q01DX001 (ip), vehicle: saline

**Q.** Which T/C (dose: 100.0 mg/kg/injection, schedule: Q04DX003 (ip), vehicle: Klucel (hydroxypropylcellulose) (HPC)) does the source give for `CC(C)(C)c1cc(C(=S)N2CCN(C(=S)c3cc(C(C)(C)C)c(O)c(C(C)(C)C)c3)CC2)cc(C(C)(C)C)c1O` here?
**A.** 97 % of control

**Q.** What about the T/C (dose: 200.0 mg/kg/injection, schedule: Q04DX003 (ip), vehicle: Klucel (hydroxypropylcellulose) (HPC)) of the same compound?
**A.** 94 % of control

**Q.** What about the T/C (dose: 400.0 mg/kg/injection, schedule: Q04DX003 (ip), vehicle: Klucel (hydroxypropylcellulose) (HPC)) of the same compound?
**A.** 96 % of control

**Q.** What does the source list for `OCC1OC(OC2CCCCC2)C(O)C(O)C1O` (configuration not stated)?
**A.** T/C (dose: 100.0 mg/kg/injection, schedule: Q04DX003 (ip), vehicle: saline): 100 % of control; T/C (dose: 200.0 mg/kg/injection, schedule: Q04DX003 (ip), vehicle: saline): 96 % of control; T/C (dose: 400.0 mg/kg/injection, schedule: Q04DX003 (ip), vehicle: saline): 102 % of control

**Q.** For `CCOC(=O)C1C(=O)N(O)c2cnccc21` (configuration not stated), which T/C [1] is on record?
**A.** 107 % of control

**Q.** And the T/C [2]?
**A.** 107 % of control

**Q.** And the T/C [3]?
**A.** 88 % of control

**Q.** With `COc1ccc(CCNC(=O)Cc2ccc(O)cc2)cc1OC` as the compound, how does the T/C (dose: 100.0 mg/kg/injection, schedule: Q01DX001 (ip), vehicle: carboxymethylcellulose (CMC)) read?
**A.** 100 % of control

**Q.** And the T/C (dose: 200.0 mg/kg/injection, schedule: Q01DX001 (ip), vehicle: carboxymethylcellulose (CMC))?
**A.** 102 % of control

**Q.** And the T/C (dose: 400.0 mg/kg/injection, schedule: Q01DX001 (ip), vehicle: carboxymethylcellulose (CMC))?
**A.** 96 % of control

**Q.** Which results are given for `CCOP(=O)(OCC)O/N=C(/C)c1cccc([N+](=O)[O-])c1`?
**A.** T/C (dose: 5.0 mg/kg/injection, schedule: Q01DX001 (ip), vehicle: saline): 100 % of control; T/C (dose: 10.0 mg/kg/injection, schedule: Q01DX001 (ip), vehicle: saline): 97 % of control

**Q.** For `NC(N)=NNO`, which T/C [1] is on record?
**A.** 88 % of control

**Q.** What about the T/C [2] of the same compound?
**A.** 95 % of control

**Q.** And the T/C [3]?
**A.** 101 % of control

**Q.** With `c1ccc(C[N+]23CCN(CC2)CC3)cc1` as the compound, how does the T/C (dose: 12.5 mg/kg/injection, schedule: Q01DX009 (ip), vehicle: saline) read?
**A.** 119 % of control

**Q.** What about the T/C (dose: 25.0 mg/kg/injection, schedule: Q01DX009 (ip), vehicle: saline) of the same compound?
**A.** 109 % of control

**Q.** And the T/C (dose: 50.0 mg/kg/injection, schedule: Q01DX009 (ip), vehicle: saline)?
**A.** 108 % of control

**Q.** With `C(CC1CCNCC1)CC1CCNCC1` (tested in a mixture with another compound) as the compound, how does the T/C [1] read?
**A.** 94 % of control

**Q.** Which results are given for `COc1cc2c(cc1OC)-c1cc3cc(OC)c(OC)cc3c(CCC(=O)O)[n+]1CC2` (tested in a mixture with another compound)?
**A.** T/C (dose: 100.0 mg/kg/injection, schedule: Q04DX002 (ip), vehicle: saline): 117 % of control; T/C (dose: 200.0 mg/kg/injection, schedule: Q04DX002 (ip), vehicle: saline): 103 % of control; T/C (dose: 400.0 mg/kg/injection, schedule: Q04DX002 (ip), vehicle: saline): 109 % of control

**Q.** With `COc1ccc(NC(=O)Oc2ccc3ccccc3c2)c(OC)c1` as the compound, how does the T/C (dose: 100.0 mg/kg/injection, schedule: Q04DX002 (ip), vehicle: Klucel (hydroxypropylcellulose) (HPC)) read?
**A.** 97 % of control

**Q.** What about the T/C (dose: 200.0 mg/kg/injection, schedule: Q04DX002 (ip), vehicle: Klucel (hydroxypropylcellulose) (HPC)) of the same compound?
**A.** 111 % of control

**Q.** What about the T/C (dose: 400.0 mg/kg/injection, schedule: Q04DX002 (ip), vehicle: Klucel (hydroxypropylcellulose) (HPC)) of the same compound?
**A.** 104 % of control

**Q.** Which T/C (dose: 50.0 mg/kg/injection, schedule: Q01DX009 (ip), vehicle: water) does the source give for `CC([NH-])=O.CC([NH-])=O.[Cl][Pt+2][Cl]` here?
**A.** 120 % of control

**Q.** And the T/C (dose: 100.0 mg/kg/injection, schedule: Q01DX009 (ip), vehicle: water)?
**A.** 115 % of control

**Q.** What about the T/C (dose: 100.0 mg/kg/injection, schedule: Q04DX003 (ip), vehicle: water) of the same compound?
**A.** 114 % of control

**Q.** What about the T/C (dose: 200.0 mg/kg/injection, schedule: Q04DX003 (ip), vehicle: water) of the same compound?
**A.** 110 % of control

**Q.** What does the source list for `CN(C)CCP(=O)(O)O`?
**A.** T/C (dose: 100.0 mg/kg/injection, schedule: Q01DX009 (ip), vehicle: saline with Tween-80): 96 % of control; T/C (dose: 200.0 mg/kg/injection, schedule: Q01DX009 (ip), vehicle: saline with Tween-80): 95 % of control; T/C (dose: 400.0 mg/kg/injection, schedule: Q01DX009 (ip), vehicle: saline with Tween-80): 91 % of control

**Q.** Which results are given for `CC(=O)CC(C)=Nc1ccc([N+](=O)[O-])cc1.CC(=O)CC(C)=Nc1ccc([N+](=O)[O-])cc1.[Cu]`?
**A.** T/C (dose: 12.5 mg/kg/injection, schedule: Q01DX001 (ip), vehicle: saline with Tween-80): 93 % of control; T/C (dose: 25.0 mg/kg/injection, schedule: Q01DX001 (ip), vehicle: saline with Tween-80): 88 % of control; T/C (dose: 50.0 mg/kg/injection, schedule: Q01DX001 (ip), vehicle: saline with Tween-80): 91 % of control

— PubChem BioAssay AID248 (DTP/NCI, 2004)
